Reference: US5206232A, “Fungicidal imidazole complexes” (priority 1990, dated 1993)

What was measured:
crops = conditions: free, non-complexed prochloraz vs metal complexes; susceptible crops; cited from earlier work
powdery mildew = experiment: Fungicidal activity against powdery mildew on inoculated cucumber plants (disease index); format: in vivo, Sphaerotheca fuliginia; conditions: cucumbers, letters in the cell = significance groups (P = 0.05)
Procedure: Cucumbers sensitive to powdery mildew were sprouted in trays and then transferred to pots of 16 cm diameter, two plants per pot. They were kept in a hot-house at 18° C.-25° C. at a relative humidity of 60%-70%. The cucumber plants were contaminated with powdery mildew collected from pumpkin leaves by passing the contaminated leaf over the leaves of the plants to be tested and the plants then sprayed with water. First treatment was with the first appearance of the disease, by spraying until dripping. All treatments were at a concentration of 0.03%, except for the commercial Myclobutanal (a systemic fungicide of Rohm and Haas Co.), where a concentration of 0.006% was used. The status of the disease was determined by three different people. The experiment was conducted in blocks, at random, with repetitions. Four blocks of four repetitions of ten treatments (total 160 pots) at three evaluation periods.

coffee berry disease = experiment: Activity against coffee berry disease (inhibition of sporulation on colonized branch sections); format: in vivo, Colletotrichum coffeanum; conditions: for Per Cent Active Ingredient for 80% Inhibition: 80% inhibition of sporulation, by linear regression of dose response curves, three days incubation
Procedure: The zinc complex of prochloraz was tested for its activity against coffee berry disease as follows:
Approximately 3.5 mm sections of colonized branches are washed in a solution of Teepol or similar wetting agent to remove any initial spore load. Sections are laid on moistened cellosine wadding in plastic boxes, 12 sections per box. Three boxes are sprayed with each concentration of the candidate material, closed and incubated for three days. After incubation the spores are removed by vigorous shaking of each of the 12 twigs in 10 ml water and are counted, using a haemocytometer slide. The sections of the branch are measured and their volume taken by displacement. The parameters measured were concentration of the formulation and expressed as percent active ingredient (A.I.) and percent inhibition of sporulation. The inhibition of sporulation was expressed in relation to the sporulation of unsprayed control and folpet as the standard fungicide. Each determination was done in triplicate and repeated at least three times. The dose response curves were analyzed by linear regression and the different formulations were compared at the 80% inhibition point.

[1] = 0.03% spray, key 0 = clean, 1 = 10%-20% sick, 2 = 20%-30%, 3 = 30%-40%, 4 = 40%-50%, 5 = over 50% sick
[2] = 0.006% spray (commercial standard), key 0 = clean to 5 = over 50% sick

Row | Compound | Disease Index 14 Days After Treatment (powdery mildew; [1]) | Disease Index 7 Days After Treatment (powdery mildew; [1]) | Per Cent Active Ingredient for 80% Inhibition (coffee berry disease) | further results
1 | CCCN(CCOc1c(Cl)cc(Cl)cc1Cl)C(=O)n1ccnc1 [prochloraz, 1-[N-propyl-N-2-(2,4,6-trichlorophenoxy)-ethyl-carbamoyl]-imidazole] | – | – | – | phytotoxicity (crops): phytotoxic to some crops
2 | CCCN(CCOc1c(Cl)cc(Cl)cc1Cl)C(=O)n1ccnc1.CCCN(CCOc1c(Cl)cc(Cl)cc1Cl)C(=O)n1ccnc1.[Cl][Sn][Cl] [SnCl2 complex of Prochloraz, Bis-[1-{N-propyl-N-2-(2,4,6-trichlorophenoxy)-ethyl-carbamoyl}-imidazole]-tin(II) chloride complex] | 0.78 | – | – | –
3 | Bis-[1-{N-propyl-N-2-(2,4,6-trichlorophenoxy)-ethyl-carbamoyl}-imidazole]-cobalt (II) chloride complex [CoCl2 complex of Prochloraz] | 1.38 | 2.06 | – | –
4 | CCCN(CCOc1c(Cl)cc(Cl)cc1Cl)C(=O)n1ccnc1.CCCN(CCOc1c(Cl)cc(Cl)cc1Cl)C(=O)n1ccnc1.[Cl][Zn][Cl] [ZnCl2 complex of Prochloraz, Bis-[1-{N-propyl-N-2-(2,4,6-trichlorophenoxy)-ethyl-carbamoyl}-imidazole]-zinc chloride complex] | 0.94 | 1.63 | 0.09 Per Cent Active Ingredient | activity against coffee berry disease (in words) (coffee berry disease; especially as compared to known commercial metal complexes): very good activity; activity against coffee berry disease compared to commercial "Octave" (coffee berry disease; relative to Octave, at 80% inhibition point): more than two times greater
5 | O=C1c2ccccc2C(=O)N1SC(Cl)(Cl)Cl [Folpet, reference compound] | – | – | 0.62 Per Cent Active Ingredient | –
6 | CCCCC(C#N)(Cn1cncn1)c1ccc(Cl)cc1 (racemic) [Myclobutanol, reference compound] | – | – | – | Disease Index 7 Days After Treatment (powdery mildew; [2]): 1.34; Disease Index 14 Days After Treatment (powdery mildew; [2]): 0.81
